Measured values as given in patent US10654845B2, “2-(het)aryl-substituted fused bicyclic heterocycle derivatives as pesticides” (BAYER CROPSCIENCE AKTIENGESELLSCHAFT, priority 2015, dated 2020).
Each block holds one compound with its values, some of them ahead of it.

How the values were obtained:
[1] = log P by HPLC on reversed-phase column (C18), EEC Directive 79/831 Annex V.A8; conditions: for chromatographic logP: reversed-phase HPLC column (C18)
Source text: Called log P (HCOOH) in the table.
Called log P (neutral) in the table.

Ctenocephalides felis [2] = assay: Ctenocephalides felis oral test; type: in vivo; conditions: 100 ppm, after 2 days
Experimental: Ctenocephalides felis-Oral Test
(§1) Solvent: dimethyl sulphoxide
To produce a suitable preparation of active compound, 10 mg of active compound are mixed with 0.5 ml of dimethyl sulphoxide. Dilution with citrated cattle blood gives the desired concentration.
About 20 unfed adult cat fleas (Ctenocephalides felis) are placed into a chamber which is closed at the top and bottom with gauze. A metal cylinder whose bottom end is closed with parafilm is placed onto the chamber. The cylinder contains the blood/active compound preparation, which can be imbibed by the fleas through the parafilm membrane.
After 2 days, the kill in % is determined. 100% means that all of the fleas have been killed; 0% means that none of the fleas have been killed.

Musca domestica = Musca domestica test; type: in vivo; conditions: 100 ppm, after 2 days, adult houseflies
Experimental: as §1
(§2) To produce a suitable preparation of active compound, 10 mg of active compound are mixed with 0.5 ml of dimethyl sulphoxide, and the concentrate is diluted with water to the desired concentration.
Vessels containing a sponge treated with sugar solution and the active compound preparation of the desired concentration are populated with 10 adult houseflies (Musca domestica).
After 2 days, the kill in % is determined. 100% means that all of the flies have been killed; 0% means that none of the flies have been killed.

Phaedon cochleariae = Phaedon cochleariae spray test; type: in vivo; conditions: 500 g/ha, after 7 days, beetle larvae killed; for pest or weed control at 500 g/ha: Phaedon cochleariae, 168 h, read-out: efficacy in %
Experimental: Phaedon cochleariae-Spray Test
(§3) Solvent: 78.0 parts by weight of acetone
(§4) • 1.5 parts by weight of dimethylformamide Emulsifier: alkylaryl polyglycol ether
(§5) To produce a suitable preparation of active compound, 1 part by weight of active compound is dissolved using the stated parts by weight of solvent and made up with water containing an emulsifier concentration of 1000 ppm until the desired concentration is attained. To produce further test concentrations, the preparation is diluted with emulsifier-containing water.
After 7 days, the efficacy in % is determined. 100% means that all the beetle larvae have been killed; 0% means that no beetle larvae have been killed.

Myzus persicae [3] = assay: Myzus persicae spray test (Chinese cabbage leaf discs); type: in vivo; conditions: 500 g/ha, after 6 days, aphids killed; for pest or weed control at 500 g/ha: Myzus persicae, foliar, 144 h, read-out: efficacy in %
Experimental: (§6) Myzus persicae Spray Test
Solvent: 78 parts by weight of acetone
as §4, §5
Discs of Chinese cabbage leaves (Brassica pekinensis) infested by all stages of the green peach aphid (Myzus persicae) are sprayed with an active compound preparation of the desired concentration.
After 6 days, the efficacy in % is determined. 100% means that all the aphids have been killed; 0% means that no aphids have been killed.

Lucilia cuprina = Lucilia cuprina test; type: in vivo; conditions: 100 ppm, after 2 days, L1 larvae
Experimental: as §1, §2
About 20 L1 larvae of the Australian sheep blowfly (Lucilia cuprina) are transferred into a test vessel containing minced horsemeat and the active compound preparation of the desired concentration.
After 2 days, the kill in % is determined. 100% means that all the larvae have been killed; 0% means that no larvae have been killed.

Spodoptera frugiperda = Spodoptera frugiperda spray test; type: in vivo; conditions: 500 g/ha, after 7 days, caterpillars killed
Experimental: Spodoptera frugiperda-Spray Test Solvent: 78.0 parts by weight of acetone • • 1.5 parts by weight of dimethylformamide Emulsifier: alkylaryl polyglycol ether […] To produce further test concentrations, the preparation is diluted with emulsifier-containing water. Leaf disks of maize (Zea mays) are sprayed with an active compound preparation of the desired concentration and, after drying, populated with caterpillars of the armyworm (Spodoptera frugiperda).

Meloidogyne incognita = Meloidogyne incognita test; type: in vivo; conditions: 20 ppm, after 14 days, formation of galls
Experimental: Meloidogyne incognita-Test
Solvent: 125.0 parts by weight of acetone
To produce a suitable preparation of active compound, 1 part by weight of active compound is mixed with the stated amount of solvent and the concentrate is diluted with water to the desired concentration.
Vessels are filled with sand, active compound solution, an egg/larvae suspension of the southern root-knot nematode (Meloidogyne incognita) and lettuce seeds. The lettuce seeds germinate and the plants develop. The galls develop on the roots.
After 14 days, the nematicidal efficacy in % is determined by the formation of galls. 100% means that no galls were found; 0% means that the number of galls on the treated plants corresponds to the untreated control.

[4] = system: Anopheles funestus strain FUMOZ-R; assay: whole plant or invertebrate; type: in vivo; conditions: read-out: mortality in %
Experimental: Anopheles Test (ANPHFU Surface Treatment)
(§7) Solvent: acetone+2000 ppm rapeseed oil methyl ester (RME)
(§8) To produce an appropriate active compound formulation, the active compound is dissolved in the solvent (2 mg/ml). The active compound formulation is pipetted onto a glazed tile and, after it has dried off, adult mosquitoes of the species Anopheles funestus strain FUMOZ-R (Hunt et al., Med Vet Entomol. 2005 September; 19(3):271-5) are placed onto the treated tile. The exposure time is 30 minutes.
(§9) 24 hours after contact with the treated surface, mortality in % is determined. 100% means that all mosquitoes have been killed; 0% means that none of the mosquitoes have been killed.

[5] = system: Anopheles gambiae strain RSPH (homozygot kdr); assay: Anopheles test (ANPHGB surface treatment); type: in vivo; conditions: 24 hours after contact
Experimental: Anopheles Test (ANPHGB Surface Treatment)
as §7
as §8, with “gambiae” for “funestus”, “RSPH (homozygot kdr)” for “FUMOZ-R (Hunt et al., Med Vet Entomol. 2005 September; 19(3):271-5)”
as §9

[6] = system: Aedes aegypti strain MONHEIM; assay: whole plant or invertebrate; type: in vivo; conditions: read-out: mortality in %
Experimental: Aedes Test (AEDSAE Surface Treatment)
as §7
as §8, with “Aedes aegypti” for “Anopheles funestus”, “MONHEIM” for “FUMOZ-R (Hunt et al., Med Vet Entomol. 2005 September; 19(3):271-5)”
as §9

Boophilus microplus = Boophilus microplus injection test; type: in vivo; conditions: 20 μg/animal, assessed after 7 days
Experimental: Boophilus microplus-Injection Test
as §1
To produce a suitable preparation of active compound, 10 mg of active compound are mixed with 0.5 ml of solvent and the concentrate is diluted with solvent to the desired concentration.
1 μl of the active compound solution is injected into the abdomen of 5 engorged adult female cattle ticks (Boophilus microplus). The animals are transferred into dishes and kept in a climate-controlled room.
Efficacy is assessed after 7 days by laying of fertile eggs. Eggs which are not visibly fertile are stored in a climate-controlled cabinet until the larvae hatch after about 42 days. An efficacy of 100% means that none of the ticks has laid any fertile eggs; 0% means that all the eggs are fertile.

Myzus persicae [7] = assay: Myzus persicae spray test (bell pepper plants); type: in vivo; conditions: 100 ppm, after 6 days
Experimental: as §6
Solvent: 7 parts by weight of dimethylformamide
Emulsifier: alkylaryl polyglycol ether
as §5, with “water. If the addition of ammonium salts or/and penetrants is required, these are each added in a concentration of 1000 ppm to the formulation solution.” for “water.”
Bell pepper plants (Capsicum annuum) severely infested with the green peach aphid (Myzus persicae) are treated by spraying with the active compound preparation in the desired concentration.
After 6 days, the kill in % is determined. 100% means that all of the aphids have been killed; 0% means that none of the aphids have been killed.

Ctenocephalides felis [8] = assay: Ctenocephalides felis in vitro contact tests with adult cat fleas; type: in vivo; conditions: 5 μg/cm^2 (500 g/ha), after 48 h
Experimental: Ctenocephalides felis—In Vitro Contact Tests with Adult Cat Fleas
For the coating of the test tubes, 9 mg of active compound are first dissolved in 1 ml of acetone p.a. and then diluted to the desired concentration with acetone p.a. 250 μl of the solution are distributed homogeneously on the inner walls and the base of a 25 ml test tube by turning and rocking on an orbital shaker (rocking rotation at 30 rpm for 2 h). With 900 ppm active compound solution and internal surface 44.7 cm^2, given homogeneous distribution, an area-based dose of 5 μg/cm^2 is achieved.
After the solvent has evaporated off, the tubes are populated with 5-10 adult cat fleas (Ctenocephalides felis), sealed with a perforated plastic lid and incubated in a horizontal position at room temperature and ambient humidity. After 48 h, efficacy is determined. To this end, the test tubes are stood upright and the fleas are knocked to the base of the tube. Fleas which remain motionless at the base or move in an uncoordinated manner are considered to be dead or moribund.
100% efficacy means that all the fleas were dead or moribund. 0% efficacy means that no fleas were harmed.

Tetranychus urticae = Tetranychus urticae spray test, OP-resistant; type: in vivo; conditions: 500 g/ha, after 6 days, spider mites killed
Experimental: Tetranychus urticae-Spray Test, OP-Resistant
as §3, §4, §5
Discs of bean leaves (Phaseolus vulgaris) infested with all stages of the greenhouse red spider mite (Tetranychus urticae) are sprayed with an active compound preparation of the desired concentration.
After 6 days, the efficacy in % is determined. 100% means that all the spider mites have been killed; 0% means that no spider mites have been killed.

[9] = pH 2.7, logP-acidic, LC-MS acidic range, pH 2.7 (HCOOH), C18, 55° C.
[10] = pH 7.8, log P (neutral), preparation examples, neutral range, pH 7.8
[11] = pH 7.8, logP-neutral, LC-MS neutral range, pH 7.8, C18, 55° C.
[12] = LC-MS acidic range, pH 2.7 (HCOOH), C18, 55° C.
[13] = LC-MS neutral range, pH 7.8, C18, 55° C.

SMILES: CCS(=O)(=O)c1ccc(NC(=O)C(F)(F)C(F)F)nc1-c1nc2cc(C(F)(F)F)ncc2n1C [Example 8]
logP-acidic ([1]; pH 2.7): 2.80
logP-neutral ([1]; pH 7.8): 2.12
kill in % (Ctenocephalides felis [2]): 100%
kill in % (Musca domestica): 100%
efficacy in % (Phaedon cochleariae): 100%
efficacy in % (Myzus persicae [3]): 90%
kill in % (Lucilia cuprina): 100%

SMILES: CCS(=O)(=O)c1ccc(NC(=O)C2CC2)nc1-c1nc2cc(C(F)(F)F)ncc2n1C [Example 22]
logP-acidic ([1]; pH 2.7): 2.43
kill in % (Ctenocephalides felis [2]): 100%
kill in % (Musca domestica): 100%
efficacy in % (Phaedon cochleariae): 100%
kill in % (Myzus persicae [7]): 100%
kill in % (Lucilia cuprina): 90%
efficacy (dead or moribund fleas) (Ctenocephalides felis [8]): 100%
efficacy (laying of fertile eggs) (Boophilus microplus): 80%

SMILES: CCS(=O)(=O)c1ccc(SC(C)C)nc1-c1nc2cc(C(F)(F)F)ncc2n1C [Example 29]
nematicidal efficacy in % (Meloidogyne incognita): 90%
logP-acidic [1, 12]: 3.62
logP-neutral [1, 13]: 3.53

SMILES: CCS(=O)(=O)c1ccc(/C=C/C2CC2)nc1-c1nc2cc(C(F)(F)F)ncc2n1C [Example 40, 2-{6-[(E)-2-Cyclopropylvinyl]-3-(ethylsulphonyl)pyridin-2-yl}-3-methyl-6-(trifluoromethyl)-3H-imidazo[4,5-c]pyridine]
chromatographic logP [1, 9]: 3.33
chromatographic logP [1, 10]: 3.24
chromatographic logP [1, 11]: 3.24
efficacy in % (Spodoptera frugiperda): 100%
pest or weed control at 500 g/ha (Phaedon cochleariae): 100%
kill in % (Myzus persicae [7]): 100%

SMILES: CCNc1ccc(S(=O)(=O)CC)c(-c2nc3cc(C(F)(F)F)ncc3n2C)n1 [Example 56]
nematicidal efficacy in % (Meloidogyne incognita): 100%
logP-acidic [1, 12]: 2.37
logP-neutral [1, 13]: 2.35
efficacy in % (Phaedon cochleariae): 100%
efficacy in % (Myzus persicae [3]): 100%
efficacy in % (Tetranychus urticae): 90%

SMILES: CCS(=O)(=O)c1ccc(NC(C)=O)nc1-c1nc2cc(C(F)(F)C(F)(F)F)ncc2n1C [Example 62]
nematicidal efficacy in % (Meloidogyne incognita): 90%
logP-acidic ([1]; pH 2.7): 2.54
logP-neutral ([1]; pH 7.8): 2.47
efficacy in % (Spodoptera frugiperda): 100%
efficacy in % (Phaedon cochleariae): 100%
efficacy in % (Tetranychus urticae): 90%

SMILES: CCS(=O)(=O)c1ccc(NC(=O)C(C)CSC)nc1-c1nc2cc(C(F)(F)F)ncc2n1C (stereo not shown) [Example 65]
nematicidal efficacy in % (Meloidogyne incognita): 100%
logP-acidic ([1]; pH 2.7): 2.94
logP-neutral ([1]; pH 7.8): 2.78
efficacy in % (Phaedon cochleariae): 100%
efficacy in % (Myzus persicae [3]): 100%

Second part, led by results:

chromatographic logP [1, 9]: 2.94
chromatographic logP [1, 10]: 2.86
chromatographic logP [1, 11]: 2.86
SMILES: CCOc1ccc(S(=O)(=O)CC)c(-c2nc3cc(C(F)(F)F)ncc3n2C)n1 [Example 10, 2-[6-Ethoxy-3-(ethylsulphonyl)pyridin-2-yl]-3-methyl-6-(trifluoromethyl)-3H-imidazo[4,5-c]pyridine]
kill in % (Musca domestica): 90%
efficacy in % (Spodoptera frugiperda): 83%
pest or weed control at 500 g/ha (Phaedon cochleariae): 100%
pest or weed control at 500 g/ha (Myzus persicae [3]): 90%
kill in % (Lucilia cuprina): 100%

chromatographic logP [1, 9]: 1.63
chromatographic logP [1, 10]: 1.62
chromatographic logP [1, 11]: 1.62
SMILES: CCS(=O)(=O)c1ccc(N)nc1-c1nc2cc(C(F)(F)F)ncc2n1C [Example 14, 5-(Ethylsulphonyl)-6-[3-methyl-6-(trifluoromethyl)-3H-imidazo[4,5-c]pyridin-2-yl]pyridine-2-amine]
nematicidal efficacy in % (Meloidogyne incognita): 90%
kill in % (Ctenocephalides felis [2]): 100%
pest or weed control at 500 g/ha (Phaedon cochleariae): 100%
mortality at 20 mg/m2 [4]: 80 to 100%
mortality at 100 mg/m2 [4]: 80 to 100%
mortality at 20 mg/m2 ([5]; 20 mg/m^2, 30 minutes exposure): 80 to 100%
mortality at 100 mg/m2 ([5]; 100 mg/m^2, 30 minutes exposure): 80 to 100%
pest or weed control at 500 g/ha (Myzus persicae [3]): 90%
mortality at 20 mg/m2 [6]: 80 to 100%
mortality at 100 mg/m2 [6]: 80 to 100%
kill in % (Lucilia cuprina): 100%
efficacy (laying of fertile eggs) (Boophilus microplus): 80%

logP-acidic ([1]; pH 2.7): 3.31
logP-neutral ([1]; pH 7.8): 3.22
SMILES: CCS(=O)(=O)c1ccc(OC(C)C)nc1-c1nc2cc(C(F)(F)F)ncc2n1C [Example 18]
nematicidal efficacy in % (Meloidogyne incognita): 90%
